Results on 69 compounds are retold here after US9090600B2, “Fungicidal 4-substituted-3-{phenyl[(heterocyclylmethoxy)imino]methyl}-1,2,4-oxadizol-5(4H)-one derivatives” (BAYER INTELLECTUAL PROPERTY GMBH, priority 2011, dated 2015).

Marks after values point to notes of the source that are not given here.

For the data set the following is noted: pH 2.7.
As for `COc1ccc(C(=O)Nc2cccc(CO/N=C(/c3ccccc3)c3noc(=O)n3C)n2)cc1` [Example 217], the LogP was 3.53 [a].

On to `Cn1c(/C(=N\OCc2csc(NC(=O)C(F)(F)Oc3ccccc3)n2)c2ccccc2)noc1=O` [Example 220], for which the LogP is 3.89 [a].

For `Cn1c(/C(=N\OCc2cccc(NC(=O)C3(c4ccc(Cl)cc4Cl)CC3)n2)c2ccccc2)noc1=O` [Example 222], the LogP was 4.96 [a].

For the compound `CC(Oc1ccccc1Cl)C(=O)Nc1cccc(CO/N=C(/c2ccccc2)c2noc(=O)n2C)n1` (stereo not drawn) [Example 231], the LogP was 4.41 [a].

On to `Cn1c(/C(=N\OCc2csc(NC(=O)C3COc4ccccc4O3)n2)c2cccc(F)c2)noc1=O` (stereo not drawn) [Example 234], for which the LogP is 3.7 [a].

`Cn1c(/C(=N\OCc2cccc(NC(=O)OCCc3ccc(Br)cc3)n2)c2ccccc2)noc1=O` [Example 238]: the LogP is 4.63 [a].

For `CC(C)CSC(=O)Nc1cccc(CO/N=C(/c2ccccc2)c2noc(=O)n2C)n1` [Example 241], the lipophilicity (LogP) is 4.39 [a].

`C#CC(C)OC(=O)Nc1cccc(CO/N=C(/c2ccccc2)c2noc(=O)n2C)n1` (stereo not drawn) [Example 242]: the log partition coefficient (LogP) was 3.41 [a].

Regarding `Cn1c(C(=NOCc2cccc(NC(=O)OC(C)(C)C)n2)c2cccc(F)c2F)noc1=O` [Example 249], the LogP was 3.94 [a].

Regarding `Cc1ccc(C(=NOCc2csc(NC(=O)Cc3ccccc3)n2)c2noc(=O)n2C)cc1` [Example 252], the LogP is 3.65 [a].

Regarding `Cn1c(C(=NOCc2cccc(NC(=O)OC(C)(C)C)n2)c2cccc(F)c2F)noc1=O` [Example 254], the LogP was 4.01 [a].

For the compound `Cn1c(C(=NOCc2cccc(N)n2)c2ccc(F)cc2)noc1=O` [Example 259], the LogP is 1.41 [a].

Consider `CC(Oc1ccc(Cl)cc1)C(=O)Nc1cccc(CON=C(c2ccccc2)c2noc(=O)n2C)n1` (stereo not drawn) [Example 260], for which the LogP is 4.35 [a].

On to `Cn1c(C(=NOCc2cccc(NC(=O)COc3ccccc3Br)n2)c2ccccc2)noc1=O` [Example 269], for which the log partition coefficient (LogP) is 4.25 [a].

As to `CC(C)CC(C)OC(=O)Nc1cccc(CO/N=C(/c2ccccc2)c2noc(=O)n2C)n1` (stereo not drawn) [Example 273], the LogP is 4.68 [a].

As for `Cn1c(/C(=N\OCc2cccc(NC(=O)COc3ccc(Cl)cc3Cl)n2)c2ccccc2)noc1=O` [Example 274], the LogP was 4.61 [a].

As to `CC(Oc1ccccc1Br)C(=O)Nc1cccc(CO/N=C(/c2ccccc2)c2noc(=O)n2C)n1` (stereo not drawn) [Example 275], the LogP is 4.53 [a].

Regarding `Cc1cc(Cl)ccc1OCCCC(=O)Nc1cccc(CO/N=C(/c2ccccc2)c2noc(=O)n2C)n1` [Example 277], the log partition coefficient (LogP) is 4.73 [a].

As to `CCCOC(=S)Nc1cccc(CO/N=C(/c2ccccc2)c2noc(=O)n2C)n1` [Example 283], the LogP was 4.11 [a].

As for `Cc1ccc(OC(C)C(=O)Nc2cccc(CO/N=C(/c3ccccc3)c3noc(=O)n3C)n2)cc1` (stereo not drawn) [Example 287], the log partition coefficient (LogP) is 4.35 [a].

Consider `Cn1c(/C(=N\OCc2cccc(NC(=O)OCCCC(F)(F)C(F)(F)F)n2)c2ccccc2)noc1=O` [Example 293], for which the LogP is 4.29 [a].

As for `Cn1c(/C(=N\OCc2cccc(NC(=O)c3ccccc3Oc3ccccc3)n2)c2ccccc2)noc1=O` [Example 294], the lipophilicity (LogP) was 4.76 [a].

For the compound `Cn1c(/C(=N\OCc2cccc(NC(=O)OCCc3ccccc3Br)n2)c2ccccc2)noc1=O` [Example 298], the LogP is 4.66 [a].

Turning to `CC(OC(=O)Nc1cccc(CO/N=C(/c2ccccc2)c2noc(=O)n2C)n1)C(C)(C)C` (stereo not drawn) [Example 305], the lipophilicity (LogP) was 4.56 [a].

In the case of `Cn1c(/C(=N\OCc2cccc(NC(=O)COc3cccc(F)c3)n2)c2ccccc2)noc1=O` [Example 311], the LogP is 3.78 [a].

Consider `Cn1c(/C(=N\OCc2csc(NC(=O)COc3cccc(Br)c3)n2)c2ccccc2)noc1=O` [Example 314], for which the log partition coefficient (LogP) is 3.94 [a].

Take `Cn1c(/C(=N\OCc2csc(NC(=O)COc3ccccc3)n2)c2ccccc2)noc1=O` [Example 315]: the log partition coefficient (LogP) is 3.51 [a].

With `Cc1ccc(/C(=N/OCc2csc(NC(=O)C(C)Oc3ccccc3)n2)c2noc(=O)n2C)cc1` (stereo not drawn) [Example 319], the lipophilicity (LogP) is 3.99 [a].

As to `CCCCSC(=O)Nc1cccc(CO/N=C(/c2ccccc2)c2noc(=O)n2C)n1` [Example 320], the lipophilicity (LogP) is 4.41 [a].

With `Cc1ccc(/C(=N/OCc2csc(N)n2)c2noc(=O)n2C)cc1` [Example 326], the lipophilicity (LogP) is 1.82 [a].

Turning to `COc1ccc(/C(=N/OCc2cccc(NC(=O)OC(C)(C)C)n2)c2noc(=O)[nH]2)cc1` [Example 333], the lipophilicity (LogP) was 3.69 [a].

Regarding `Cc1cccc(OCC(=O)Nc2cccc(CO/N=C(/c3ccccc3)c3noc(=O)n3C)n2)c1` [Example 334], the LogP was 4.07 [a].

As for `CC(Oc1ccccc1)C(=O)Nc1nc(CO/N=C(/c2cccc(F)c2)c2noc(=O)n2C)cs1` (stereo not drawn) [Example 338], the log partition coefficient (LogP) was 3.76 [a].

`Cc1ccc(C(=NOCc2csc(NC(=O)OC3CCCCC3)n2)c2noc(=O)n2C)cc1` [Example 339]: the log partition coefficient (LogP) is 4.48 [a].

On to `Cn1c(/C(=N\OCc2cccc(NC(=O)OCCc3ccc(Cl)cc3)n2)c2ccccc2)noc1=O` [Example 349], for which the log partition coefficient (LogP) is 4.53 [a].

Take `CCCCC(C)(C)OC(=O)Nc1cccc(CO/N=C(/c2ccccc2)c2noc(=O)n2C)n1` [Example 353]: the lipophilicity (LogP) was 5.1 [a].

Regarding `Cc1cccc(OCC(=O)Nc2nc(CO/N=C(/c3ccccc3)c3noc(=O)n3C)cs2)c1` [Example 356], the lipophilicity (LogP) was 3.8 [a].

In the case of `Cn1c(/C(=N\OCc2cccc(NC(=O)OCCc3cccc(Cl)c3)n2)c2ccccc2)noc1=O` [Example 359], the LogP is 4.51 [a].

Take `Cc1ccc(C(=NOCc2csc(N(C)C=O)n2)c2noc(=O)n2C)cc1` [Example 360]: the LogP is 3.06 [a].

In the case of `Cn1c(/C(=N\OCc2csc(NC(=O)COc3cccc(Cl)c3)n2)c2ccccc2)noc1=O` [Example 368], the lipophilicity (LogP) was 3.87 [a].

As for `CCCCC(=O)Nc1nc(CO/N=C(/c2cccc(F)c2)c2noc(=O)n2C)cs1` [Example 370], the log partition coefficient (LogP) was 3.48 [a].

In the case of `Cn1c(/C(=N\OCc2cccc(NC(=O)COc3cccc(Br)c3)n2)c2ccccc2)noc1=O` [Example 382], the LogP was 4.2 [a].

`CCCCSC(=S)Nc1cccc(CO/N=C(/c2ccccc2)c2noc(=O)n2C)n1` [Example 385]: the log partition coefficient (LogP) was 4.8 [a].

For `Cc1cccc(/C(=N/OCc2cccc(NC(=O)c3cccc(F)c3)n2)c2noc(=O)n2C)c1` [Example 391], the LogP is 3.99 [a].

Regarding `COc1ccc(C(=O)Nc2nc(CO/N=C(/c3ccccc3)c3noc(=O)n3C)cs2)cc1` [Example 393], the log partition coefficient (LogP) is 3.48 [a].

Turning to `Cc1ccc(C2(C(=O)Nc3cccc(CO/N=C(/c4ccccc4)c4noc(=O)n4C)n3)CC2)cc1` [Example 397], the log partition coefficient (LogP) was 4.76 [a].

For `Cc1ccccc1OC(C)C(=O)Nc1cccc(CO/N=C(/c2ccccc2)c2noc(=O)n2C)n1` (stereo not drawn) [Example 398], the log partition coefficient (LogP) is 4.46 [a].

Consider `COc1cccc(C(=NOCc2cccc(NC(=O)c3cccc(F)c3)n2)c2noc(=O)n2C)c1` [Example 399], for which the LogP was 3.72 [a].

As to `Cn1c(/C(=N\OCc2cccc(NC(=O)COc3ccc(Cl)cc3)n2)c2ccccc2)noc1=O` [Example 402], the LogP was 4.1 [a].

`CCCCOC(=S)Nc1nc(CO/N=C(/c2ccccc2)c2noc(=O)n2C)cs1` [Example 410]: the LogP is 4.56 [a].

Consider `Cn1c(/C(=N/OCc2cccc(N)n2)c2cccc(F)c2F)noc1=O` [Example 416], for which the log partition coefficient (LogP) is 1.26 [a].

Take `Cn1c(/C(=N\OCc2cccc(NC(=O)OC3CCCCC3)n2)c2cccc(F)c2F)noc1=O` [Example 417]: the LogP was 4.46 [a].

With `CCCCC(=O)Nc1cccc(CO/N=C(/c2cccc(F)c2F)c2noc(=O)n2C)n1` [Example 420], the LogP is 3.55 [a].

For the compound `Cn1c(/C(=N\OCc2csc(NC(=O)C3COc4ccccc4O3)n2)c2ccccc2Cl)noc1=O` (stereo not drawn) [Example 442], the log partition coefficient (LogP) was 3.73 [a].

With `CCCCCOC(=O)Nc1cccc(CO/N=C(/c2ccccc2F)c2noc(=O)n2C)n1` [Example 444], the lipophilicity (LogP) is 4.34 [a].

With `CCCC(C)C(=O)Nc1cccc(CO/N=C(/c2ccccc2F)c2noc(=O)n2C)n1` (stereo not drawn) [Example 449], the lipophilicity (LogP) was 3.73 [a].

Take `CC(C)(C)OC(=O)Nc1cccc(CON=C(c2noc(=O)[nH]2)c2cccc(F)c2F)n1` [Example 460]: the LogP was 3.76 [a].

Take `CCCCCC(=O)Nc1cccc(CO/N=C(/c2cccc(F)c2F)c2noc(=O)n2C)n1` [Example 464]: the LogP was 3.92 [a].

As to `CCCCC(=O)Nc1cccc(CO/N=C(/c2ccccc2F)c2noc(=O)n2C)n1` [Example 480], the lipophilicity (LogP) is 3.44 [a].

Turning to `CCCCC(=O)Nc1nc(CO/N=C(/c2ccccc2Cl)c2noc(=O)n2C)cs1` [Example 481], the LogP is 3.53 [a].

Take `CC(Oc1ccccc1)C(=O)Nc1nc(CON=C(c2ccccc2Cl)c2noc(=O)n2C)cs1` (stereo not drawn) [Example 493]: the log partition coefficient (LogP) was 3.81 [a].

As for `C#CCCOC(=O)Nc1nc(CON=C(c2ccccc2Cl)c2noc(=O)n2C)cs1` [Example 499], the LogP is 3.19 [a].

For `Cn1c(C(=NOCc2cccc(N)n2)c2cccc(F)c2F)noc1=O` [Example 508], the LogP was 1.34 [a].

Take `Cn1c(C(=NOCc2cccc(N)n2)c2ccccc2F)noc1=O` [Example 510]: the LogP was 1.23 [a].

With `CCCCSC(=S)Nc1nc(CON=C(c2ccccc2)c2noc(=O)n2C)cs1` [Example 512], the log partition coefficient (LogP) is 4.81 [a].

On to `CCCCCC(=O)Nc1cccc(CO/N=C(/c2ccccc2F)c2noc(=O)n2C)n1` [Example 513], for which the lipophilicity (LogP) was 3.81 [a].

In the case of `CCCCOC(=O)Nc1nc(CO/N=C(/c2ccccc2Cl)c2noc(=O)n2C)cs1` [Example 519], the lipophilicity (LogP) is 3.85 [a].

`C#CCCOC(=O)Nc1cccc(CO/N=C(/c2ccccc2F)c2noc(=O)n2C)n1` [Example 525]: the LogP is 3.21 [a].

Consider `CCCCCOC(=O)Nc1nc(CO/N=C(/c2ccccc2Cl)c2noc(=O)n2C)cs1` [Example 530], for which the LogP was 4.25 [a].
